Source: PubChem BioAssay (NCI)
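Test compounds were applied to cells in 96-well plates for 48 hours at 5 doses. Abbreviation: GI50, concentration required for 50% inhibition of growth. TGI: concentration producing complete growth inhibition.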

Key:
Assay in all cases: inhibition of tumour cell growth, NCI panel, 48 h; in the data active = GI50 below about 0.43 µM; inactive = the rest
[1] = system: DU-145 prostate
[2] = system: NCI-H23 lung
[3] = system: UACC-62 melanoma
[4] = system: 786-0 renal
[5] = system: A498 renal
[6] = system: OVCAR-5 ovarian
[7] = system: PC-3 prostate
[8] = system: COLO 205 colon
[9] = system: MDA-MB-231 breast
[10] = system: SN12C renal
[11] = system: UO-31 renal
[12] = system: CAKI-1 renal
[13] = system: SF-295 CNS
[14] = system: NCI-H226 lung
[15] = system: HL-60(TB) leukemia
[16] = system: UACC-257 melanoma
[17] = system: BT-549 breast
[18] = system: HCC-2998 colon
[19] = system: RXF 393 renal
[20] = system: T-47D breast
[21] = system: SK-MEL-2 melanoma
[22] = system: SK-OV-3 ovarian
[23] = system: HOP-62 NSCLC
[24] = system: SNB-19 CNS
[25] = system: SNB-75 CNS
[26] = system: LOX IMVI melanoma
[27] = system: HS 578T breast
[28] = system: MDA-MB-435
[29] = system: ACHN renal
[30] = system: M14 melanoma
[31] = system: TK-10 renal
[32] = system: SR leukemia
[33] = system: K-562 leukemia
[34] = system: SW-620 colon
[35] = system: EKVX NSCLC
[36] = system: CCRF-CEM leukemia
[37] = system: NCI-H522 lung
[38] = system: HCT-15 colon
[39] = system: A549 NSCLC
[40] = system: IGROV1 ovarian
[41] = system: SF-268 CNS
[42] = system: MALME-3M melanoma
[43] = system: OVCAR-8 ovarian
[44] = system: HT29 colon
[45] = system: MOLT-4 leukemia
[46] = system: OVCAR-4 ovarian
[47] = system: SK-MEL-28 melanoma
[48] = system: MCF7 breast
[49] = system: HCT-116 colon
[50] = system: OVCAR-3 ovarian
[51] = system: RPMI-8226 leukemia
[52] = system: SF-539 CNS
[53] = system: NCI-H460 lung
[54] = system: KM12 colon
[55] = system: SK-MEL-5 melanoma
[56] = system: U251 CNS

CCCCCCCCCCCCCCCCSC(=NCC)NCC
2.69 µM: TGI [9]
4.09 µM: TGI [11]
3.13 µM: TGI [20]
12.9 µM: TGI [25]
3 µM: TGI [26]
3.12 µM: TGI [15]
2.88 µM: TGI [13]
4.99 µM: TGI [2]
11.6 µM: TGI [22]
2.74 µM: TGI [7]
3.75 µM: TGI [16]
inactive: GI50 [1] 1.62 µM | GI50 [2] 2.05 µM | GI50 [3] 1.67 µM | GI50 [4] 3.49 µM | GI50 [5] 6.66 µM | GI50 [6] 3.08 µM | GI50 [7] 1.37 µM | GI50 [8] 1.81 µM | GI50 [9] 1.31 µM | GI50 [10] 1.56 µM | GI50 [11] 1.62 µM | GI50 [12] 1.39 µM | GI50 [13] 1.47 µM | GI50 [14] 2.98 µM | GI50 [15] 1.45 µM | GI50 [16] 1.87 µM | GI50 [17] 6.16 µM | GI50 [18] 1.85 µM | GI50 [19] 1.63 µM | GI50 [20] 1.48 µM | GI50 [21] 4.05 µM | GI50 [22] 3.36 µM | GI50 [23] 1.77 µM | GI50 [24] 3.12 µM | GI50 [25] 2.01 µM | GI50 [26] 1.63 µM | GI50 [27] 2.8 µM
3.18 µM: TGI [23]
3.47 µM: TGI [8] | TGI [19]
3.1 µM: TGI [3]
12.5 µM: TGI [6]
15.8 µM: TGI [24]
8.84 µM: TGI [27]
14.6 µM: TGI [14]
2.78 µM: TGI [12]
20.8 µM: TGI [4]
46.9 µM: TGI [17]
28.4 µM: TGI [21]
34.3 µM: TGI [5]
3.28 µM: TGI [18]
2.98 µM: TGI [1] | TGI [10]

COc1ccc(O)c2c(=O)c3c(OC)cc4c(c3oc12)[C@@H]1C=CO[C@@H]1O4
> 43 µM: TGI [27]
13.3 µM: TGI [20]
34.9 µM: TGI [31]
5.64 µM: TGI [29]
> 34.9 µM: TGI [1]
inactive: GI50 [1] 3.03 µM | GI50 [28] 3.3 µM | GI50 [4] 9.87 µM | GI50 [30] > 21.4 µM | GI50 [31] 4.51 µM | GI50 [7] > 21.4 µM | GI50 [9] 7.9 µM | GI50 [17] 4.77 µM | GI50 [20] 0.475 µM | GI50 [27] 3.96 µM
> 60.5 µM: TGI [4]
36.5 µM: TGI [17]
active: GI50 [29] 0.321 µM | GI50 [32] 0.0518 µM
> 100 µM: TGI [28] | TGI [30] | TGI [7] | TGI [9]

O=C(O)CN(CCN(CC(=O)O)CC(=O)O)CC(=O)O
inactive: GI50 [33] > 100 µM | GI50 [1] > 100 µM | GI50 [28] > 100 µM | GI50 [34] > 100 µM | GI50 [3] > 100 µM | GI50 [35] > 100 µM | GI50 [4] > 100 µM | GI50 [29] > 100 µM | GI50 [36] > 100 µM | GI50 [37] > 100 µM | GI50 [38] > 100 µM | GI50 [39] > 100 µM | GI50 [30] > 100 µM | GI50 [40] > 100 µM | GI50 [41] > 100 µM | GI50 [31] > 100 µM | GI50 [7] > 100 µM | GI50 [8] > 100 µM | GI50 [9] > 100 µM | GI50 [42] > 100 µM | GI50 [11] > 100 µM | GI50 [43] > 100 µM | GI50 [12] > 100 µM | GI50 [13] > 100 µM | GI50 [44] > 100 µM | GI50 [45] > 100 µM | GI50 [14] > 100 µM | GI50 [46] > 100 µM | GI50 [16] > 100 µM | GI50 [47] > 100 µM | GI50 [17] > 100 µM | GI50 [48] > 100 µM | GI50 [49] > 100 µM | GI50 [50] > 100 µM | GI50 [51] > 100 µM | GI50 [52] > 100 µM | GI50 [19] > 100 µM | GI50 [20] > 100 µM | GI50 [21] > 100 µM | GI50 [22] > 100 µM | GI50 [23] > 100 µM | GI50 [24] > 100 µM | GI50 [25] > 100 µM | GI50 [53] > 100 µM | GI50 [26] > 100 µM | GI50 [54] > 100 µM | GI50 [55] > 100 µM | GI50 [56] > 100 µM | GI50 [27] > 100 µM
> 100 µM: TGI [33] | TGI [1] | TGI [28] | TGI [34] | TGI [3] | TGI [35] | TGI [4] | TGI [29] | TGI [36] | TGI [37] | TGI [38] | TGI [39] | TGI [30] | TGI [40] | TGI [41] | TGI [31] | TGI [7] | TGI [8] | TGI [9] | TGI [42] | TGI [11] | TGI [43] | TGI [12] | TGI [13] | TGI [44] | TGI [45] | TGI [14] | TGI [46] | TGI [16] | TGI [47] | TGI [17] | TGI [48] | TGI [49] | TGI [50] | TGI [51] | TGI [52] | TGI [19] | TGI [20] | TGI [21] | TGI [22] | TGI [23] | TGI [24] | TGI [25] | TGI [53] | TGI [26] | TGI [54] | TGI [55] | TGI [56] | TGI [27]
